This is an account of results in publication PMC10586084 (Journal of Enzyme Inhibition and Medicinal Chemistry, 2023).

What all share (type): biochemical
The target of one experiment is hCA I (Homo sapiens, UniProt P00915). The experiment is described as follows: stopped-flow CO2 hydrase assay, hCA I. Conditions: stopped flow technique, mean from three assays.
A further experiment addresses hCA II (Homo sapiens, UniProt P00918). The experiment is described as follows: stopped-flow CO2 hydrase assay, hCA II. Conditions: stopped flow technique, mean from three assays.
In the next experiment the target is hCA IV (Homo sapiens, UniProt P22748). The experiment is described as follows: stopped-flow CO2 hydrase assay, hCA IV. Conditions: stopped flow technique, mean from three assays.
hCA IV, sequence (P22748 19-284 limits assumed): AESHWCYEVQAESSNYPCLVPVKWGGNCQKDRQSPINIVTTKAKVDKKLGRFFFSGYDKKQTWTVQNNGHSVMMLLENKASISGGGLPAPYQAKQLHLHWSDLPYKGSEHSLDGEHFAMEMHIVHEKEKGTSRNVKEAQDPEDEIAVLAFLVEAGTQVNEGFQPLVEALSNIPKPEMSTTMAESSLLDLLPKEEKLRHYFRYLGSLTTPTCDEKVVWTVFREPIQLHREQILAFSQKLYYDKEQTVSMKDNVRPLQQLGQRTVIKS
The target in a further experiment is hCA IX (Homo sapiens, UniProt Q16790). The experiment is described as follows: biochemical. Conditions: for Ki: KI hCA IX, stopped flow technique, mean from three assays; for Selectivity index I/IX: ratio KI hCA I / KI hCA IX; for Selectivity index II/IX: ratio KI hCA II / KI hCA IX; for Selectivity index IV/IX: ratio KI hCA IV / KI hCA IX.
Another experiment has as its target hCA XII (Homo sapiens, UniProt O43570). Put plainly: stopped-flow CO2 hydrase assay, hCA XII. Conditions: for Ki: KI hCA XII, stopped flow technique, mean from three assays; for Selectivity index I/XII: ratio KI hCA I / KI hCA XII; for Selectivity index II/XII: ratio KI hCA II / KI hCA XII; for Selectivity index IV/XII: ratio KI hCA IV / KI hCA XII.

One may read the Ki as a dissociation constant, usually derived from enzyme kinetics or from competition with a known ligand. Higher therefore signals a looser hold on the target.

hCA I, sequence (P00915 whole entry): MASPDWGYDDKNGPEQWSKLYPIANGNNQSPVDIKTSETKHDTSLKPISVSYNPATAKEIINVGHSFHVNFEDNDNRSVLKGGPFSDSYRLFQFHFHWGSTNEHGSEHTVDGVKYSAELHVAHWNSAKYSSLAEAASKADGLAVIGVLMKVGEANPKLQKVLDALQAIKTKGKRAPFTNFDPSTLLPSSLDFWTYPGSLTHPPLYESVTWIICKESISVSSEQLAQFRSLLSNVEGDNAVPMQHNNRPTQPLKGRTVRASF
hCA XII, sequence (O43570 25-354): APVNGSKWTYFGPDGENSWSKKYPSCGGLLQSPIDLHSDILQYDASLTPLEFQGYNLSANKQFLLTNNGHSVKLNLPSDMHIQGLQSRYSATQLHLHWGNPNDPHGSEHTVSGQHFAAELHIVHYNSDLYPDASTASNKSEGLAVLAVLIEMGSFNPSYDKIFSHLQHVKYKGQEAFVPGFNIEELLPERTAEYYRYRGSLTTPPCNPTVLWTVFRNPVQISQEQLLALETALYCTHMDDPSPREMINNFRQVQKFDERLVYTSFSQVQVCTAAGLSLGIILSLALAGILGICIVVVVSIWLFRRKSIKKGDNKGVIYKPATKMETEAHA

As for `NS(=O)(=O)c1ccc(Nc2nc3nccc(-c4ccc(F)cc4)n3n2)cc1` [Compound 1f, 4-((7-(4-Fluorophenyl)-[1,2,4]triazolo[1,5-a]pyrimidin-2-yl)amino)benzenesulfonamide], on hCA I, the inhibition constant Ki turned out to be 0.763 µM. Also, on hCA II, the Ki was determined as 0.0827 µM. This compound also displayed a Ki on hCA IV of 0.993 µM. Besides, on hCA IX, affinity was put at a Ki of 0.0288 µM, the “Selectivity index I/IX” value was 26.5, the “Selectivity index II/IX” value is on record as 2.9 and the “Selectivity index IV/IX” value is reported as 34.5. Besides, on hCA XII, the inhibition constant (Ki) was found to be 0.0624 µM, the “Selectivity index I/XII” value was determined as 12.2, the “Selectivity index II/XII” value worked out at 1.3 and the “Selectivity index IV/XII” value came out at 15.9.
On hCA I, `NS(=O)(=O)c1ccc(Nc2nc3nccc(-c4cccc(F)c4)n3n2)cc1` [Compound 1g, 4-((7-(3-Fluorophenyl)-[1,2,4]triazolo[1,5-a]pyrimidin-2-yl)amino)benzenesulfonamide] showed a Ki of 0.551 µM. The compound further displayed a Ki on hCA II of 0.0459 µM. Besides, the Ki at hCA IV turned out to be 0.853 µM. Further, at hCA IX, the inhibition constant (Ki) is 0.0224 µM, the “Selectivity index I/IX” value was 24.6, the “Selectivity index II/IX” value worked out at 2.0 and the “Selectivity index IV/IX” value was determined as 38.1. On hCA XII, the inhibition constant (Ki) turned out to be 0.0426 µM, the “Selectivity index I/XII” value is reported as 12.9, the “Selectivity index II/XII” value was 1.1 and the “Selectivity index IV/XII” value is 20.0.
In turn, `NS(=O)(=O)c1ccc(Nc2nc3nccc(-c4ccccc4F)n3n2)cc1` [Compound 1h, 4-((7-(2-Fluorophenyl)-[1,2,4]triazolo[1,5-a]pyrimidin-2-yl)amino)benzenesulfonamide] showed a Ki on hCA I of 0.682 µM. On hCA II, affinity was put at a Ki of 0.0359 µM. At hCA IV, this compound displayed an inhibitory constant (Ki) of 0.92 µM. Moreover, at hCA IX, affinity was put at a Ki of 0.0195 µM, the “Selectivity index I/IX” value amounted to 35.0, the “Selectivity index II/IX” value was 1.8 and the “Selectivity index IV/IX” value is 47.2. Moreover, on hCA XII, the Ki was 0.0258 µM, the “Selectivity index I/XII” value was 26.4, the “Selectivity index II/XII” value is given as 1.4 and the “Selectivity index IV/XII” value is 35.7.
`NS(=O)(=O)c1ccc(Nc2nc3nccc(-c4c(F)cccc4F)n3n2)cc1` [Compound 1i, 4-((7-(2,6-Difluorophenyl)-[1,2,4]triazolo[1,5-a]pyrimidin-2-yl)amino)benzenesulfonamide]: the Ki on hCA I turned out to be 0.743 µM. This compound yielded a Ki on hCA II of 0.0176 µM. The same compound came in with a Ki on hCA IV of 0.703 µM. At hCA IX, the affinity corresponds to a Ki of 0.0219 µM, the “Selectivity index I/IX” value stood at 33.9, the “Selectivity index II/IX” value worked out at 0.8 and the “Selectivity index IV/IX” value came to 32.1. Besides, on hCA XII, the Ki came out at 0.0225 µM, the “Selectivity index I/XII” value is 33, the “Selectivity index II/XII” value was found to be 0.8 and the “Selectivity index IV/XII” value is on record as 31.2.
As for `NS(=O)(=O)c1ccc(Nc2nc3nccc(-c4ccc(Cl)cc4)n3n2)cc1` [Compound 1k, 4-((7-(4-Chlorophenyl)-[1,2,4]triazolo[1,5-a]pyrimidin-2-yl)amino)benzenesulfonamide], at hCA I, the Ki was 2.25 µM. Further, on hCA II, the Ki worked out at 0.0624 µM. This compound also displayed an inhibitory constant (Ki) at hCA IV of 4 µM. For the same compound, on hCA IX, the affinity, expressed as Ki, was 0.0741 µM; the “Selectivity index I/IX” value is reported as 30.4; the “Selectivity index II/IX” value came out at 0.8; the “Selectivity index IV/IX” value came to 53.9. Further, on hCA XII, the Ki came to 0.0292 µM, the “Selectivity index I/XII” value is recorded as 77.1, the “Selectivity index II/XII” value was 2.1 and the “Selectivity index IV/XII” value was 137.
For the compound `NS(=O)(=O)c1ccc(Nc2nc3nccc(-c4cccc(Cl)c4)n3n2)cc1` [Compound 1l, 4-((7-(3-Chlorophenyl)-[1,2,4]triazolo[1,5-a]pyrimidin-2-yl)amino)benzenesulfonamide], affinity on hCA I was put at a Ki of 6.58 µM. Besides, the Ki at hCA II is 0.124 µM. The same compound showed an inhibition constant (Ki) on hCA IV of 5.98 µM. Also, at hCA IX, the affinity corresponds to a Ki of 0.0304 µM, the “Selectivity index I/IX” value was determined as 216, the “Selectivity index II/IX” value was 4.06 and the “Selectivity index IV/IX” value was determined as 197. On hCA XII, the Ki was 0.0464 µM, the “Selectivity index I/XII” value was 142, the “Selectivity index II/XII” value came to 2.7 and the “Selectivity index IV/XII” value is reported as 129.
For the compound `NS(=O)(=O)c1ccc(Nc2nc3nccc(-c4ccc(Br)cc4)n3n2)cc1` [Compound 1n, 4-((7-(4-Bromophenyl)-[1,2,4]triazolo[1,5-a]pyrimidin-2-yl)amino)benzenesulfonamide], at hCA I, affinity was put at a Ki of 3.37 µM. The compound also had a Ki on hCA II of 0.2 µM. On hCA IV, this compound had an inhibition constant (Ki) of 5.21 µM. Further, on hCA IX, the affinity, expressed as Ki, was 0.0527 µM; the “Selectivity index I/IX” value is 63.8; the “Selectivity index II/IX” value is recorded as 3.8; the “Selectivity index IV/IX” value is listed as 98.9. On hCA XII, the inhibition constant Ki was 0.0582 µM, the “Selectivity index I/XII” value came out at 57.8, the “Selectivity index II/XII” value worked out at 3.4 and the “Selectivity index IV/XII” value is 89.6.
The compound `NS(=O)(=O)c1ccc(Nc2nc3nccc(-c4cccc(Br)c4)n3n2)cc1` [Compound 1o, 4-((7-(3-Bromophenyl)-[1,2,4]triazolo[1,5-a]pyrimidin-2-yl)amino)benzenesulfonamide] had an inhibitory constant (Ki) at hCA I of 9.2 µM. The compound also showed a Ki on hCA II of 0.133 µM. In addition, the affinity on hCA IV corresponds to a Ki of 4.33 µM. In addition, on hCA IX, the inhibitory constant (Ki) came to 0.0381 µM, the “Selectivity index I/IX” value came to 241, the “Selectivity index II/IX” value is on record as 3.5 and the “Selectivity index IV/IX” value is reported as 114. In addition, on hCA XII, the inhibition constant (Ki) worked out at 0.0786 µM, the “Selectivity index I/XII” value was determined as 117, the “Selectivity index II/XII” value is 1.7 and the “Selectivity index IV/XII” value is 55.1.
On to `NS(=O)(=O)c1ccc(Nc2nc3nccc(-c4ccc(I)cc4)n3n2)cc1` [Compound 1p, 4-((7-(4-Iodophenyl)-[1,2,4]triazolo[1,5-a]pyrimidin-2-yl)amino)benzenesulfonamide], for which the inhibition constant Ki at hCA I was determined as 7.63 µM. At hCA II, this compound came in with an inhibitory constant (Ki) of 0.559 µM. This compound also showed a Ki at hCA IV of 8.85 µM. On hCA IX, the inhibition constant (Ki) was 0.0957 µM, the “Selectivity index I/IX” value was 79.7, the “Selectivity index II/IX” value came to 5.8 and the “Selectivity index IV/IX” value amounted to 92.5. At hCA XII, the inhibition constant (Ki) turned out to be 0.039 µM, the “Selectivity index I/XII” value was 196, the “Selectivity index II/XII” value is on record as 14.3 and the “Selectivity index IV/XII” value was determined as 227.
As to `NS(=O)(=O)c1ccc(Nc2nc3nccc(-c4ccc([N+](=O)[O-])cc4)n3n2)cc1` [Compound 1q, 4-((7-(4-Nitrophenyl)-[1,2,4]triazolo[1,5-a]pyrimidin-2-yl)amino)benzenesulfonamide], the inhibitory constant (Ki) on hCA I was 4.29 µM. Also, the affinity on hCA II corresponds to a Ki of 0.0863 µM. This compound also gave a Ki on hCA IV of 3.26 µM. Moreover, at hCA IX, the Ki was 0.0694 µM, the “Selectivity index I/IX” value is reported as 61.8, the “Selectivity index II/IX” value was 1.2 and the “Selectivity index IV/IX” value amounted to 46.9. On hCA XII, the affinity, expressed as Ki, was 0.0421 µM; the “Selectivity index I/XII” value is given as 102; the “Selectivity index II/XII” value was found to be 2.0; the “Selectivity index IV/XII” value worked out at 77.4.
As to `NS(=O)(=O)c1ccc(Nc2nc3nccc(-c4cccc([N+](=O)[O-])c4)n3n2)cc1` [Compound 1r, 4-((7-(3-Nitrophenyl)-[1,2,4]triazolo[1,5-a]pyrimidin-2-yl)amino)benzenesulfonamide], at hCA I, the inhibitory constant (Ki) was found to be 3.47 µM. Also, the inhibition constant (Ki) on hCA II turned out to be 0.048 µM. On hCA IV, this compound registered an inhibitory constant (Ki) of 0.69 µM. For the same compound, on hCA IX, affinity was put at a Ki of 0.0499 µM, the “Selectivity index I/IX” value was 69.5, the “Selectivity index II/IX” value came to 1.0 and the “Selectivity index IV/IX” value is 13.8. In addition, at hCA XII, affinity was put at a Ki of 0.0043 µM, the “Selectivity index I/XII” value is recorded as 806, the “Selectivity index II/XII” value was determined as 11.2 and the “Selectivity index IV/XII” value was determined as 160.
Take `NS(=O)(=O)c1ccc(Nc2nc3nccc(-c4ccccc4[N+](=O)[O-])n3n2)cc1` [Compound 1s, 4-((7-(2-Nitrophenyl)-[1,2,4]triazolo[1,5-a]pyrimidin-2-yl)amino)benzenesulfonamide]: at hCA I, the inhibition constant (Ki) was found to be 8.45 µM. Further, the affinity on hCA II, expressed as Ki, was 0.0771 µM. For the same compound, affinity on hCA IV was put at a Ki of 3.98 µM. In addition, at hCA IX, the Ki stood at 0.0204 µM, the “Selectivity index I/IX” value is reported as 414, the “Selectivity index II/IX” value is 3.8 and the “Selectivity index IV/IX” value came to 195. Moreover, on hCA XII, the affinity corresponds to a Ki of 0.0489 µM, the “Selectivity index I/XII” value is listed as 173, the “Selectivity index II/XII” value is recorded as 1.6 and the “Selectivity index IV/XII” value was determined as 81.4.
Take `Cc1ccc(-c2ccnc3nc(Nc4ccc(S(N)(=O)=O)cc4)nn23)cc1` [Compound 1t, 4-((7-(p-Tolyl)-[1,2,4]triazolo[1,5-a]pyrimidin-2-yl)amino)benzenesulfonamide]: at hCA I, the affinity, expressed as Ki, was 1.47 µM. The compound also registered an inhibitory constant (Ki) on hCA II of 0.064 µM. Further, affinity at hCA IV was put at a Ki of 2.29 µM. Besides, on hCA IX, the Ki was found to be 0.0415 µM, the “Selectivity index I/IX” value was found to be 35.5, the “Selectivity index II/IX” value is recorded as 1.5 and the “Selectivity index IV/IX” value stood at 55.1. On hCA XII, the Ki amounted to 0.0612 µM, the “Selectivity index I/XII” value worked out at 24.0, the “Selectivity index II/XII” value is recorded as 1.0 and the “Selectivity index IV/XII” value is on record as 37.4.
